Source: ChEMBL document CHEMBL2375337, “Synthesis and anti-H5N1 activity of chiral gossypol derivatives and its analogs implicated by a viral entry blocking mechanism” (Bioorg Med Chem Lett, 2013)
Where “and” joins values, the source holds several entries; their conditions need not be identical. Equal values may be shown once. Calls of active or inactive are those of the source. No cut-off for these calls is given here.

Columns and labels:
MDCK = experiment: (§1) Cytotoxicity against MDCK cells by MTT assay; format: cell-based, Canis lupus familiaris; details: dog, mdck
[1] = Selectivity index, ratio of CC50 for MDCK cells to IC50 for Influenza A virus (A/Vietnam/1194/2004(H5N1)); format: functional
Influenza A virus [2] = experiment: Antiviral activity against Influenza A virus (A/Vietnam/1194/2004(H5N1)) infected in MDCK cells by plaque reduction assay; format: functional, organism-based
[3] = as §1; format: cell-based, Canis lupus familiaris; details: dog, MDCK cells
H5N1 subtype [4] = experiment: Inhibition of H5N1 subtype hemagglutinin adsorption into chicken RBC at 100 ug/mL
Influenza A virus [5] = experiment: Antiviral activity against Influenza A virus (A/Vietnam/1194/2004(H5N1)) infected in MDCK cells assessed as inhibition of viral entry at 20 uM treated at the time of infection; format: functional, organism-based
Influenza A virus [6] = experiment: Antiviral activity against Influenza A virus (A/Vietnam/1194/2004(H5N1)) infected in MDCK cells assessed as inhibition of viral entry at 20 uM treated 2 hrs post infection; format: functional, organism-based
H5N1 subtype [7] = experiment: Inhibition of H5N1 subtype neuraminidase up to 20 uM
Influenza A virus [8] = experiment: Antiviral activity against Influenza A virus (A/Vietnam/1194/2004(H5N1)) infected in MDCK cells assessed as inhibition of viral entry at 20 uM treated 2 hrs prior to infection; format: functional, organism-based
H5N1 subtype [9] = experiment: Antiviral activity against H5N1 subtype infected in MDCK cells; format: functional, organism-based; details: Influenza A virus
[10] = Selectivity index, ratio of cytotoxicity against MDCK cells to antiviral activity against H5N1 subtype; format: toxicity, cell-based; details: dog, read-out: Selectivity Index
[11] = Influenza A virus, MDCK, read-out: IC50

For CC[C@H](C)[C@H](N/C=C1\C(=O)C(O)=C(C(C)C)c2cc(C)c(-c3c(C)cc4c(c3O)/C(=C/N[C@H](C(=O)[O-])[C@@H](C)CC)C(=O)C(O)=C4C(C)C)c(O)c21)C(=O)[O-].[Na+].[Na+] (stereo in doubt; (+)-8b), the CC50 (MDCK) was 42.2 µM, the “Ratio CC50/IC50” value [1] was 132.03 and the IC50 (Influenza A virus [2]; mdck, read-out: IC50) was 0.32 µM.
For COC(=O)[C@H](Cc1c[nH]c2ccccc12)N/C=C1\C(=O)C(O)=C(C(C)C)c2cc(C)c(-c3c(C)cc4c(c3O)/C(=C/N[C@@H](Cc3c[nH]c5ccccc35)C(=O)OC)C(=O)C(O)=C4C(C)C)c(O)c21 (stereo in doubt; (-)-11a), the CC50 [3] was greater than 36.3 µM, the “Ratio CC50/IC50” value [1] was greater than 10.77 and the IC50 (Influenza A virus [2]; mdck, read-out: IC50) was 3.37 µM.
With Cc1cc2c(c(O)c1-c1c(C)cc3c(c1O)/C(=C/N[C@@H](C)C(=O)O)C(=O)C(O)=C3C(C)C)/C(=C/N[C@@H](C)C(=O)O)C(=O)C(O)=C2C(C)C (stereo in doubt; (+)-5b) the inhibition (H5N1 subtype [4]) was “inactive”, the inhibition (Influenza A virus [5]) was “inactive” and the inhibition (Influenza A virus [6]) was “inactive”. The inhibition (H5N1 subtype [7]) was “inactive” and the inhibition (Influenza A virus [8]) was “inactive”.
For Cc1cc2c(c(O)c1-c1c(C)cc3c(c1O)/C(=C/NC(C)(C)C(=O)[O-])C(=O)C(O)=C3C(C)C)/C(=C/NC(C)(C)C(=O)[O-])C(=O)C(O)=C2C(C)C.[Na+].[Na+] (stereo in doubt; (+)-9b), the CC50 (MDCK) was 45.5 µM, the “Ratio CC50/IC50” value [1] was 51.11 and the IC50 (Influenza A virus [2]; mdck, read-out: IC50) was 0.89 µM.
With Cc1cc2c(c(O)c1-c1c(C)cc3c(c1O)/C(=C/N[C@H](C(=O)[O-])C(C)C)C(=O)C(O)=C3C(C)C)/C(=C/N[C@H](C(=O)[O-])C(C)C)C(=O)C(O)=C2C(C)C.[Na+].[Na+] (stereo in doubt; (+)-6b) the CC50 (MDCK) was 43.8 µM, the “Ratio CC50/IC50” value [1] was 34.5 and the IC50 (Influenza A virus [2]; mdck, read-out: IC50) was 1.27 µM.
With Cc1cc2c(c(O)c1-c1c(C)cc3c(c1O)/C(=C/N[C@@H]1[C@@H](O)[C@H](O)[C@@H](CO)O[C@H]1O)C(=O)C(O)=C3C(C)C)/C(=C/N[C@@H]1[C@@H](O)[C@H](O)[C@@H](CO)O[C@H]1O)C(=O)C(O)=C2C(C)C the CC50 [3] was 21.8 µM and the IC50 (Influenza A virus [2]; mdck) was “Not Active”.
For Cc1cc2c(C(C)C)c(O)c(O)c(C(=O)O)c2c(O)c1-c1c(C)cc2c(C(C)C)c(O)c(O)c(C(=O)O)c2c1O, the inhibition (H5N1 subtype [4]) was “inactive”, the CC50 [3] was 60.6 µM and the CC50 (MDCK) was 36.3 µM. For the same molecule, the inhibition (Influenza A virus [5]) was “inactive”, the IC50 (H5N1 subtype [9]) was 2.37 µM and the inhibition (Influenza A virus [6]) was “inactive”. For the same molecule, the inhibition (H5N1 subtype [7]) was “inactive”, the inhibition (Influenza A virus [8]) was “inactive” and the “Ratio CC50/IC50” value [1] was 18.62 and 15.82. It also gave an IC50 (Influenza A virus [2]; [11]) of 3.83 µM, an IC50 (Influenza A virus [2]; mdck, read-out: IC50) of 1.95 µM and a selectivity ratio [10] of 10.5.
For Cc1cc2c(c(O)c1-c1c(C)cc3c(c1O)/C(=C/N[C@@H](C)C(=O)O)C(=O)C(O)=C3C(C)C)/C(=C/N[C@@H](C)C(=O)O)C(=O)C(O)=C2C(C)C (stereo in doubt; (-)-5a), the inhibition (H5N1 subtype [4]) was “inactive”, the inhibition (Influenza A virus [5]) was “inactive” and the inhibition (Influenza A virus [6]) was “inactive”. For the same molecule, the inhibition (H5N1 subtype [7]) was “inactive” and the inhibition (Influenza A virus [8]) was “inactive”.
For Cc1cc2c(C(C)C)c(O)c(O)c(C=O)c2c(O)c1-c1c(C)cc2c(C(C)C)c(O)c(O)c(C=O)c2c1O [GOSSYPOL], the inhibition (H5N1 subtype [4]) was “inactive”, the CC50 [3] was 35.4 µM and the inhibition (Influenza A virus [5]) was “inactive”. The IC50 (H5N1 subtype [9]) was 2.14 µM, the inhibition (Influenza A virus [6]) was “inactive” and the inhibition (H5N1 subtype [7]) was “inactive”. For the same molecule, the inhibition (Influenza A virus [8]) was “inactive”, the IC50 (Influenza A virus [2]; mdck, read-out: IC50) was 3.82 µM and 1.87 µM and the selectivity ratio [10] was 1.65.
With CC(=O)Oc1c(OC(C)=O)c(C(=O)O)c2c(OC(C)=O)c(-c3c(C)cc4c(C(C)C)c(OC(C)=O)c(OC(C)=O)c(C(=O)O)c4c3OC(C)=O)c(C)cc2c1C(C)C the CC50 [3] was 41.5 µM, the IC50 (H5N1 subtype [9]) was 2.98 µM and the “Ratio CC50/IC50” value [1] was 18.22 and 12.01. The IC50 (Influenza A virus [2]; [11]) was 3.46 µM, the IC50 (Influenza A virus [2]; mdck, read-out: IC50) was 2.28 µM and the selectivity ratio [10] was greater than 8.7.
With CC[C@H](C)[C@H](N/C=C1\C(=O)C(O)=C(C(C)C)c2cc(C)c(-c3c(C)cc4c(c3O)/C(=C/N[C@H](C(=O)[O-])[C@@H](C)CC)C(=O)C(O)=C4C(C)C)c(O)c21)C(=O)[O-].[Na+].[Na+] (stereo in doubt; (-)-8a) the CC50 [3] was greater than 42.2 µM, the “Ratio CC50/IC50” value [1] was greater than 58.68 and the IC50 (Influenza A virus [2]; mdck, read-out: IC50) was 0.72 µM.
For Cc1cc2c(c(O)c1-c1c(C)cc3c(c1O)/C(=C/N[C@H](C(=O)[O-])C(C)C)C(=O)C(O)=C3C(C)C)/C(=C/N[C@H](C(=O)[O-])C(C)C)C(=O)C(O)=C2C(C)C.[Na+].[Na+] (stereo in doubt; (-)-6a), the CC50 [3] was greater than 43.8 µM, the “Ratio CC50/IC50” value [1] was greater than 16.66 and the IC50 (Influenza A virus [2]; mdck, read-out: IC50) was 2.63 µM.
For NC12CC3CC(CC(C3)C1)C2 [AMANTADINE], the CC50 [3] was greater than 220 µM, the IC50 (H5N1 subtype [9]) was 3.84 µM and the “Ratio CC50/IC50” value [1] was greater than 57.39. It also gave an IC50 (Influenza A virus [2]; [11]) of 3.84 µM and a selectivity ratio [10] greater than 57.4.
In the case of Cc1cc2c(c(O)c1-c1c(C)cc3c(c1O)/C(=C/N[C@@H](C)C(=O)[O-])C(=O)C(O)=C3C(C)C)/C(=C/N[C@@H](C)C(=O)[O-])C(=O)C(O)=C2C(C)C.[Na+].[Na+] (stereo in doubt; (-)-5a), the CC50 [3] is reported as greater than 47.3 µM, the “Ratio CC50/IC50” value [1] is reported as greater than 44.24 and the IC50 (Influenza A virus [2]; mdck, read-out: IC50) is reported as 1.07 µM.
In the case of COc1c(OC)c(C(=O)O)c2c(OC)c(-c3c(C)cc4c(C(C)C)c(OC)c(OC)c(C(=O)O)c4c3OC)c(C)cc2c1C(C)C, the IC50 (H5N1 subtype [9]) is reported as 158 µM and the selectivity ratio [10] is reported as greater than 0.33.
With Cc1cc2c(c(O)c1-c1c(C)cc3c(c1O)/C(=C/N[C@@H](C)C(=O)[O-])C(=O)C(O)=C3C(C)C)/C(=C/N[C@@H](C)C(=O)[O-])C(=O)C(O)=C2C(C)C.[Na+].[Na+] (stereo in doubt; (+)-5b) the CC50 (MDCK) was 47.3 µM, the “Ratio CC50/IC50” value [1] was 100.72 and the IC50 (Influenza A virus [2]; mdck, read-out: IC50) was 0.47 µM.
In the case of COC(=O)[C@H](Cc1c[nH]c2ccccc12)N/C=C1\C(=O)C(O)=C(C(C)C)c2cc(C)c(-c3c(C)cc4c(c3O)/C(=C/N[C@@H](Cc3c[nH]c5ccccc35)C(=O)OC)C(=O)C(O)=C4C(C)C)c(O)c21 (stereo in doubt; (+)-11b), the CC50 (MDCK) is reported as 36.3 µM, the “Ratio CC50/IC50” value [1] is reported as 22.68 and the IC50 (Influenza A virus [2]; mdck, read-out: IC50) is reported as 1.6 µM.
For Cc1cc2c(c(O)c1-c1c(C)cc3c(c1O)/C(=C/NC(C)(C)C(=O)[O-])C(=O)C(O)=C3C(C)C)/C(=C/NC(C)(C)C(=O)[O-])C(=O)C(O)=C2C(C)C.[Na+].[Na+] (stereo in doubt; (-)-9a), the CC50 [3] was 50.5 µM, the “Ratio CC50/IC50” value [1] was 31.96 and the IC50 (Influenza A virus [2]; [11]) was 1.58 µM.
For COC(=O)[C@H](C)N/C=C1\C(=O)C(O)=C(C(C)C)c2cc(C)c(-c3c(C)cc4c(c3O)/C(=C/N[C@@H](C)C(=O)OC)C(=O)C(O)=C4C(C)C)c(O)c21 (stereo in doubt; (+)-10b), the CC50 (MDCK) was 48.4 µM, the “Ratio CC50/IC50” value [1] was 50.94 and the IC50 (Influenza A virus [2]; mdck, read-out: IC50) was 0.95 µM.
COc1c(OC)c(C=O)c2c(OC)c(-c3c(C)cc4c(C(C)C)c(OC)c(OC)c(C=O)c4c3OC)c(C)cc2c1C(C)C showed an IC50 (H5N1 subtype [9]) of 103 µM and a selectivity ratio [10] greater than 0.54.
For Cc1cc2c(c(O)c1-c1c(C)cc3c(c1O)/C(=C/N[C@@H](Cc1c[nH]c4ccccc14)C(=O)[O-])C(=O)C(O)=C3C(C)C)/C(=C/N[C@@H](Cc1c[nH]c3ccccc13)C(=O)[O-])C(=O)C(O)=C2C(C)C.[Na+].[Na+] (stereo in doubt; (-)-7a), the CC50 [3] was greater than 35.6 µM, the “Ratio CC50/IC50” value [1] was greater than 67.26 and the IC50 (Influenza A virus [2]; mdck, read-out: IC50) was 0.53 µM.
For Cc1cc2c(c(O)c1-c1c(C)cc3c(c1O)/C(=C/N[C@@H](Cc1c[nH]c4ccccc14)C(=O)[O-])C(=O)C(O)=C3C(C)C)/C(=C/N[C@@H](Cc1c[nH]c3ccccc13)C(=O)[O-])C(=O)C(O)=C2C(C)C.[Na+].[Na+] (stereo in doubt; (+)-7b), the CC50 (MDCK) was 35.6 µM, the “Ratio CC50/IC50” value [1] was 142.6 and the IC50 (Influenza A virus [2]; mdck, read-out: IC50) was 0.25 µM.
For COC(=O)[C@H](C)N/C=C1\C(=O)C(O)=C(C(C)C)c2cc(C)c(-c3c(C)cc4c(c3O)/C(=C/N[C@@H](C)C(=O)OC)C(=O)C(O)=C4C(C)C)c(O)c21 (stereo in doubt; (-)-10a), the CC50 [3] was greater than 48.4 µM, the “Ratio CC50/IC50” value [1] was greater than 25.2 and the IC50 (Influenza A virus [2]; mdck, read-out: IC50) was 1.92 µM.
